# Experimental data from ChEMBL document CHEMBL1800029, “N-aryl-benzimidazolones as novel small molecule HSP90 inhibitors” (Bioorg Med Chem Lett, 2010).
# Assays:
# [1] = molecular target: T1, Heat shock protein HSP 90-alpha (Homo sapiens, UniProt P07900)
# Description: Binding affinity to Hsp90alpha N-terminal ATPase domain by TR-FRET assay based competitive binding assay
# [2] = molecular target: T1, Heat shock protein HSP 90-alpha; remark: listed apart in the source
# Description: Inhibition of Hsp90alpha ATPase activity by malachite green ATP-ase assay
# [3] = test system: SK-BR-3; assay: Cytotoxicity against human SKBR3 cells; assay type: functional, cell-based
# [4] = molecular target: T1, Heat shock protein HSP 90-alpha; assay: Inhibition of Hsp90alpha in human H1299 cells assessed as HIF-1alpha degradation by luciferase reporter assay; assay type: cell-based
# [5] = molecular target: T1, Heat shock protein HSP 90-alpha; assay: Inhibition of Hsp90alpha in human SKBR3 cells assessed as ErbB2 degradation by Western blot analysis; assay type: cell-based, SK-BR-3
# [6] = molecular target: T1, Heat shock protein HSP 90-alpha; assay: Inhibition of Hsp90alpha in human SKBR3 cells assessed as up-regulation of HSP70 protein by Western blot analysis; assay type: cell-based, SK-BR-3
IC50 [1] [nM],IC50 [2] [µM],Compound,further results
40,24.8,CC(=O)NCc1ccc2c(c1)[nH]c(=O)n2-c1cc(Cl)c(O)cc1O,–
72,22.9,O=C(NCc1ccc2c(c1)[nH]c(=O)n2-c1cc(Cl)c(O)cc1O)c1ccccc1,–
50,25.2,CS(=O)(=O)NCc1ccc2c(c1)[nH]c(=O)n2-c1cc(Cl)c(O)cc1O,–
33,14.2,CCNC(=O)NCc1ccc2c(c1)[nH]c(=O)n2-c1cc(Cl)c(O)cc1O,–
60,15.4,O=C(NCc1ccc2c(c1)[nH]c(=O)n2-c1cc(Cl)c(O)cc1O)Nc1ccccc1,–
27,3.42,O=c1[nH]c2cc(CNS(=O)(=O)c3ccccc3)ccc2n1-c1cc(Cl)c(O)cc1O,–
47,1.14,O=c1[nH]c2cc(CNS(=O)(=O)c3ccc4ccccc4c3)ccc2n1-c1cc(Cl)c(O)cc1O,–
2320,127,O=c1[nH]c2ccccc2n1-c1cc(C(F)(F)F)ccc1O,–
–,85,O=c1[nH]c2ccccc2n1-c1ccc(O)cc1O,–
34900,200,O=c1[nH]c2ccccc2n1-c1cc(O)ccc1O,–
54,15.2,O=c1[nH]c2ccccc2n1-c1cc(Cl)c(O)cc1O,–
2530,200,O=c1[nH]c2ccccc2n1-c1cc(O)c(Cl)cc1O,–
–,–,CCNC(=O)c1n[nH]c(-c2cc(Cl)c(O)cc2O)c1-c1ccc(OC)cc1,EC50 [3]: 250 nM
3320,81,O=c1[nH]c2cc(C(F)(F)F)ccc2n1-c1cc(C(F)(F)F)ccc1O,–
–,–,C=CCNC1=C2C[C@@H](C)C[C@H](OC)[C@H](O)[C@@H](C)/C=C(\C)[C@H](OC(N)=O)[C@@H](OC)/C=C\C=C(/C)C(=O)NC(=CC1=O)C2=O [TANESPIMYCIN],EC50 [3]: 25 nM

Compound,IC50 [1] [nM],IC50 [2] [µM],further results
O=c1[nH]c2cc(CNS(=O)(=O)c3cccc4ccccc34)ccc2n1-c1cc(Cl)c(O)cc1O,–,0.55,EC50 [3]: 12 nM; EC50 [4]: 190 nM; EC50 [5]: < 100 nM; EC50 [6]: 60 nM
